Laboratory results taken from patent US6680311B1, “Cryptophycin compounds” (Eli Lilly and Company, priority 1996, dated 2004).
Where a name gives a salt, the structure may show the parent alone. Read-outs that look alike come from different tables or passages of the source.

Tested on: GC3 human colon carcinoma cells
Assay: GC3 human colon carcinoma screen (MTT)
Format: cell-based
Protocol: Selected wells of a 96 well plate were seeded with GC3 human colon carcinoma cells ([…] cells in 100 μl assay medium/well) twenty four hours prior to test compound addition. Cell free assay medium was added to other select wells of the 96 well plate.
The test compound was stored in an amber bottle prior to testing. Fresh dimethylsulfoxide stock solution (200 μg/ml) was prepared immediately prior to preparation of test sample dilutions in phosphate-buffered saline (PBS). A dilution of 1:20 dimethylsulfoxide solution in PBS was prepared such that the final concentration was 10 ug/ml. Serial 1:3 dilutions using PBS (0.5 ml previous sample of 1 ml PBS) were prepared.
A 10 ul sample of each dilution of test compound was added in triplicate to wells of GC3 plates. The plates were incubated for 72 hours at about 37° C. A 10 μl sample of stock 3-[4,5-[…]]-2,5-diphenyltetrazolium bromide salt (“MTT” 5 mg/ml in PBS) was added to each well. The plates were incubated for about an hour at 37°. The plates were centrifuged, media was decanted from the wells and 100 μl acid-isopropanol (0.04 N HCl in isopropanol) was added to each well. The plate was read within one hour using a test wavelength of 570 nm (SpectraMax reader).

[1] = in vitro cytotoxicity, Gc3 tumor cell model, read-out: Gc3 IC50
[2] = Homo sapiens, Colon carcinoma cell, 72 h, read-out: IC50 (GC3 assay)
[3] = Homo sapiens, Colon carcinoma cell, 72 h, read-out: GC3 IC50

SMILES | IC50 [1] [nM] | IC50 [2] [nM] | further results
COc1ccc(C[C@H]2NC(=O)/C=C/C[C@@H]([C@H](C)[C@@H](O)[C@@H](Cl)c3ccccc3)OC(=O)[C@H](CC(C)C)OC(=O)C(C)(C)CNC2=O)cc1Cl [1′, Cryptophycin 55] | 0.065 | – | –
COc1ccc(CC2NC(=O)C=CCC(C(C)C(OC(=O)CCC(=O)O)C(Cl)c3ccccc3)OC(=O)C(CC(C)C)OC(=O)C(C)(C)CNC2=O)cc1Cl (stereo not shown) [5′, Cryptophycin 55 Succinate] | 31 | – | –
COc1ccc(CC2NC(=O)C=CCC(C(C)C(OC(=O)[C@H](N)Cc3ccc(OC)c(Cl)c3)C(Cl)c3ccccc3)OC(=O)C(CC(C)C)OC(=O)C(C)(C)CNC2=O)cc1Cl (stereo partly shown) [11′, Cryptophycin 55 3-(3-Chloro-4-methoxyphenyl)-(D)-alaninate Hydrochloride Salt] | 6.8 | – | –
COc1ccc(CC2NC(=O)C=CCC(C(C)C(OC(=O)[C@@H](N)Cc3ccccc3)C(Cl)c3ccccc3)OC(=O)C(CC(C)C)OC(=O)C(C)(C)CNC2=O)cc1Cl (stereo partly shown) [13′, Cryptophycin 55 (L)-Phenylalaninate Hydrochloride Salt] | 7 | – | –
COc1ccc(CC2NC(=O)C=CCC(C(C)C(OC(=O)[C@@H](N)Cc3c[nH]cn3)C(Cl)c3ccccc3)OC(=O)C(CC(C)C)OC(=O)C(C)(C)CNC2=O)cc1Cl (stereo partly shown) [15′, Cryptophycin 55 (L)-Histidinate Dihydrochloride Salt] | 60 | – | –
COc1ccc(CC2NC(=O)C=CCC(C(C)C(OC(=O)C3CCCN3)C(Cl)c3ccccc3)OC(=O)C(CC(C)C)OC(=O)C(C)(C)CNC2=O)cc1Cl (stereo not shown) [17′, Cryptophycin 55 (L)-Prolinate Hydrochloride Salt] | 3.6 | – | –
COc1ccc(CC2NC(=O)C=CCC(C(C)C(OC(=O)CN)C(Cl)c3ccccc3)OC(=O)C(CC(C)C)OC(=O)C(C)(C)CNC2=O)cc1Cl (stereo not shown) [19′, Cryptophycin 55 Glycinate Hydrochloride Salt] | 0.1 | – | –
COc1ccc(C[C@H]2NC(=O)/C=C/C[C@@H]([C@H](C)[C@@H](Br)[C@H](O)c3ccccc3)OC(=O)[C@H](CC(C)C)OC(=O)[C@H](C)CNC2=O)cc1Cl [CRYPTOPHYCIN-138, Cryptophycin-138] | – | 30.8 | –
COc1ccc(C[C@H]2NC(=O)/C=C/C[C@@H]([C@H](C)[C@@H](Br)C(=O)c3ccccc3)OC(=O)[C@H](CC(C)C)OC(=O)[C@H](C)CNC2=O)cc1Cl [CRYPTOPHYCIN-139, Cryptophycin-139] | – | 3.4 | –
COc1ccc(C[C@H]2NC(=O)/C=C/C[C@@H]([C@H](C)[C@@H](Cl)[C@@H](O)c3ccccc3)OC(=O)[C@H](CC(C)C)OC(=O)[C@H](C)CNC2=O)cc1Cl [CRYPTOPHYCIN-140, Cryptophycin-140] | – | 863 | –
COc1ccc(C[C@H]2NC(=O)/C=C/C[C@@H]([C@H](C)[C@@H](Cl)[C@H](O)c3ccccc3)OC(=O)[C@H](CC(C)C)OC(=O)[C@H](C)CNC2=O)cc1Cl [CRYPTOPHYCIN-141, Cryptophycin-141] | – | 795 | –
COc1ccc(C[C@H]2NC(=O)/C=C/C[C@@H]([C@H](C)[C@H](Cl)[C@H](O)c3ccccc3)OC(=O)[C@H](CC(C)C)OC(=O)[C@H](C)CNC2=O)cc1Cl [CRYPTOPHYCIN-142] | – | 1.1 | –
COc1ccc(C[C@H]2NC(=O)/C=C/C[C@@H]([C@H](C)[C@H](Cl)[C@@H](O)c3ccccc3)OC(=O)[C@H](CC(C)C)OC(=O)[C@H](C)CNC2=O)cc1Cl [CRYPTOPHYCIN-143] | – | 850 | –
COc1ccc(C[C@H]2NC(=O)/C=C/C[C@@H]([C@H](C)[C@H](Br)[C@H](O)c3ccccc3)OC(=O)[C@H](CC(C)C)OC(=O)[C@H](C)CNC2=O)cc1Cl [CRYPTOPHYCIN-145, Cryptophycin-145] | – | 0.015 | –
COc1ccc(C[C@H]2NC(=O)/C=C/C[C@@H]([C@H](C)[C@@H](OC(C)=O)[C@@H](Cl)c3ccccc3)OC(=O)[C@H](CC(C)C)OC(=O)C(C)(C)CNC2=O)cc1Cl [Compound 3, Cryptophycin 55 Acetate] | – | – | IC50 [3]: 83 nM
COc1ccc(C[C@H]2NC(=O)/C=C/C[C@@H]([C@H](C)[C@@H](OC(=O)CCC(=O)O)[C@@H](Cl)c3ccccc3)OC(=O)[C@H](CC(C)C)OC(=O)C(C)(C)CNC2=O)cc1Cl [Compound 4, Cryptophycin 55 Succinate] | – | – | IC50 [3]: 31 nM
